Results published in US20260193264A1, “BENZOYPARAZINE PYRAZINES AND THEIR USES” (FOGHORN THERAPEUTICS INC., priority 2022, published 2026).

Tests used:
[1] = target: T1, HiBiT-BRM fusion protein in stable HeLa cell line (Homo sapiens, UniProt P51531); test: HiBiT-BRM cell-based degradation assay (Nano-Glo HiBiT Lytic Detection, 24 h); design: DC50: scale not given here; conditions: HeLa HiBiT-BRM cells; for DC50: read-out: BRM HiBit Degradation IC50; for BRM HiBit Degradation Maximum (%): top dose 30 μM
T1 construct: expressed in transfected cells
T1 sequence (P51531 whole entry, the tested form may be a part): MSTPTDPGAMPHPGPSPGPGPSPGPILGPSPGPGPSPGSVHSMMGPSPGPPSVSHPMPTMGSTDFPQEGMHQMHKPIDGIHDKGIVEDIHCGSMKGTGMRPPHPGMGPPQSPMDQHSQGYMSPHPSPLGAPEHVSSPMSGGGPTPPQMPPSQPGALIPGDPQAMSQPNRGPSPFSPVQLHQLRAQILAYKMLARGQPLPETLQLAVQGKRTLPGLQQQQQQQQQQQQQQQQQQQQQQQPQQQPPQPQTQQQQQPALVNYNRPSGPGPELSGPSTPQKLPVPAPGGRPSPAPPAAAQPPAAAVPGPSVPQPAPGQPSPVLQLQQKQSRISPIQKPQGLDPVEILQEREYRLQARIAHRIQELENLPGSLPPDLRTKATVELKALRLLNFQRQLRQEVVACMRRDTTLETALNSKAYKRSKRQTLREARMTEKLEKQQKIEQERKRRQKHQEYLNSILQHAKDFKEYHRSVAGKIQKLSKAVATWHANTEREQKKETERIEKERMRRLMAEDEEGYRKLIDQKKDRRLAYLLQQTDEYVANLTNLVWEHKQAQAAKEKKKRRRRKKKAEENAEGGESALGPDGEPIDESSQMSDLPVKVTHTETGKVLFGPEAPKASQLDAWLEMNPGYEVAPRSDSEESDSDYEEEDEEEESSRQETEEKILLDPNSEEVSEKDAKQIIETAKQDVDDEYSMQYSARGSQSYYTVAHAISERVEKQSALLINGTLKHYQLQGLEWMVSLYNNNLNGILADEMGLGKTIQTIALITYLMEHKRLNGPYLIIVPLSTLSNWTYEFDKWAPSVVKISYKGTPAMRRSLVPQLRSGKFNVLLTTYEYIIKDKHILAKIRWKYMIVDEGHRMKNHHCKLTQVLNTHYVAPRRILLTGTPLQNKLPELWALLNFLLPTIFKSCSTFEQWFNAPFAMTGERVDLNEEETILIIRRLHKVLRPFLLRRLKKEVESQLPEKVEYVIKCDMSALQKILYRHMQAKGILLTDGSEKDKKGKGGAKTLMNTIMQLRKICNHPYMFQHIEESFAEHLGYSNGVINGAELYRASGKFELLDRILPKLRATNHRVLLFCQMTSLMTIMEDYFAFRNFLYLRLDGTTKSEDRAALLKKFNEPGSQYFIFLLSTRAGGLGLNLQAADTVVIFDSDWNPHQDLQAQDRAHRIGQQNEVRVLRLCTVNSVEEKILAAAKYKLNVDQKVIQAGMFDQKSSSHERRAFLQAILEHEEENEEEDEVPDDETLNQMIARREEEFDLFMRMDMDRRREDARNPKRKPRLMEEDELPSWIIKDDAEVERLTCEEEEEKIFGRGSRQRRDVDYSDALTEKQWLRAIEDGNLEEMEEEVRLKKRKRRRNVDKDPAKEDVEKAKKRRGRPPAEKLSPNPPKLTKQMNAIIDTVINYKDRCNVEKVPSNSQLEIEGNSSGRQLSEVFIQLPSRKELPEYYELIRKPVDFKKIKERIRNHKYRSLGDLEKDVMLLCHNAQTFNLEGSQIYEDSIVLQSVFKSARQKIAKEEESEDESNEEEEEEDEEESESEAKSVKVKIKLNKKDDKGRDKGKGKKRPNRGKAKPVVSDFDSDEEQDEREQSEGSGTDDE
Summary of the method: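 Percent degradation was scaled between DMSO-treated cells and cells given 2 μM of a known BRM/BRG1 degrader. Readout was NanoBiT luminescence after lytic detection. HeLa cells stably expressing HiBiT-BRM were dosed for 24 h, 10 points, 3-fold steps from 30 μM final, in duplicate.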

[2] = target: T2, HiBit-BRG1 fusion protein in stable HeLa cell line expressing HiBit-BRG1 and LgBit (Homo sapiens, UniProt P51532); test: HiBiT-BRG1 cell-based degradation assay (Nano-Glo HiBiT, 24 h); conditions: HeLa HiBit-BRG1/LgBit cells; for DC50: read-out: BRMG1 HiBit Degradation IC50; for Dmax: top dose 30 μM, read-out: BRG1 HiBit Degradation Maximum (%)
T2 construct: expressed in transfected cells
T2 sequence (P51532 whole entry, the tested form may be a part): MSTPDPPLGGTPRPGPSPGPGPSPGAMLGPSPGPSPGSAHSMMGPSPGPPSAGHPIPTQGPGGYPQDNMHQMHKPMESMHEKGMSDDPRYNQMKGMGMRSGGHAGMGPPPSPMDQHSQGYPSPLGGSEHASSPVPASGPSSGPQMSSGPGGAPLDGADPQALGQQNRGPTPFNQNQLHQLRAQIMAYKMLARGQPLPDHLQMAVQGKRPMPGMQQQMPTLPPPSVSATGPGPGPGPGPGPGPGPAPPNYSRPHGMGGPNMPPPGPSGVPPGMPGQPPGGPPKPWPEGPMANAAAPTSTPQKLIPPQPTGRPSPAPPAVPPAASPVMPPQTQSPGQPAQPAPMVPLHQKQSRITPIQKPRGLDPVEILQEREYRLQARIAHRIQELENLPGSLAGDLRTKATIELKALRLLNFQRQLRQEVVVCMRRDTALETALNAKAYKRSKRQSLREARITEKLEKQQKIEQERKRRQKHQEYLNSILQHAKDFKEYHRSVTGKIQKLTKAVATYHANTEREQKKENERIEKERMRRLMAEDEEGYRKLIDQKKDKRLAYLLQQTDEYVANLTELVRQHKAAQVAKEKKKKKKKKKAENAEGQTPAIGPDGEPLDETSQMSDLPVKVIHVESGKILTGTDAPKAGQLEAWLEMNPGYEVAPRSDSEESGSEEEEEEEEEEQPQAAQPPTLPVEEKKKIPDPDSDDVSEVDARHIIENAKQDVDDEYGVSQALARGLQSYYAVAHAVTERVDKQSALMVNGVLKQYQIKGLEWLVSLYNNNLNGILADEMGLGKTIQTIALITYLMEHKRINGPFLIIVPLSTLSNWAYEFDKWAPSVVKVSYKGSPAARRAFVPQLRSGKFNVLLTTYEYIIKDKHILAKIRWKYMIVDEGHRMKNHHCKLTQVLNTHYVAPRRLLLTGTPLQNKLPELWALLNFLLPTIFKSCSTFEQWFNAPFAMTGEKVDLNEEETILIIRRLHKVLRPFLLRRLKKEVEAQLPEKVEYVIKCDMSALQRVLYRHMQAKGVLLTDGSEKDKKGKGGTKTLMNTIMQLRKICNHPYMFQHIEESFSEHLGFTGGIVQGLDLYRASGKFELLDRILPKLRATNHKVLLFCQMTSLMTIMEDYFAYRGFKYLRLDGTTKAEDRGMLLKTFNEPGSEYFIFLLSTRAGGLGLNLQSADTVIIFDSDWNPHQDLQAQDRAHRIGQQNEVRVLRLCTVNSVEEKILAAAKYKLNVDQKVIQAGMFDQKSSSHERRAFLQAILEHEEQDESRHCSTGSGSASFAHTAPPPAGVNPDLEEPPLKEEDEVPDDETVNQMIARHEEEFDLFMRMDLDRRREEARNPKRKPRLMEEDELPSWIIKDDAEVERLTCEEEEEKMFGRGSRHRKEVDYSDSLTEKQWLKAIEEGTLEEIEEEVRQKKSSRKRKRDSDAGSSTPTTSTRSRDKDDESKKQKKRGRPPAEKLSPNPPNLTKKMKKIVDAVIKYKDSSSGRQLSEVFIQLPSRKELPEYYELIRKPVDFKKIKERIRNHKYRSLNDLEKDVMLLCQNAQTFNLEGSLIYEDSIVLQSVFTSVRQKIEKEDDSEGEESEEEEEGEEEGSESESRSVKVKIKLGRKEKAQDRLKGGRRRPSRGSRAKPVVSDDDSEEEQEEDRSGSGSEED
Summary of the method: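 Degradation calculated from NanoBiT luminescence relative to DMSO-treated cells (high) and cells given 2 μM known BRM/BRG1 degrader (low). HeLa cells stably expressing HiBiT-BRG1 plus LgBiT were exposed to compound for 24 h before lytic HiBiT detection.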

| SMILES | DC50 [1] | BRM HiBit Degradation Maximum (%) [1] | DC50 [2] | Dmax [2] |
| --- | --- | --- | --- | --- |
| Cc1ncsc1-c1ccc([C@H](C)NC(=O)[C@@H]2C[C@@H](O)CN2C(=O)C(C(C)C)n2cc(N3CCC(C4CCN(c5ccc6cc(-c7ccccc7O)nnc6c5)CC4)C3)nn2)cc1 (stereo partly drawn) [Compound 266, (2S,4R)-4-hydroxy-1-(2-(4-(3-(1-(3-(2-hydroxyphenyl)cinnolin-7-yl)piperidin-4-yl)pyrrolidin-1-yl)-1H-1,2,3-triazol-1-yl)-3-methylbutanoyl)-N-((S)-1-(4-(4-methylthiazol-5-yl)phenyl)ethyl)pyrrolidine-2-carboxamide] | < 10 nM | A (“A” indicates maximum degradation ≥75%) | < 10 nM | > 75% |
| Cc1ncsc1-c1ccc([C@H](C)NC(=O)[C@@H]2C[C@@H](O)CN2C(=O)[C@H](C(C)C)n2cnc(N3CC4(CN(c5ccc6cc(-c7ccccc7O)nnc6c5)C4)C3)n2)cc1 [Compound 267, (2S,4R)-4-hydroxy-1-[(2S)-2-(3-{6-[3-(2-hydroxyphenyl)cinnolin-7-yl]-2,6-diazaspiro[3.3]heptan-2-yl}-1,2,4-triazol-1-yl)-3-methylbutanoyl]-N-[(1S)-1-[4-(4-methyl-1,3-thiazol-5-yl)phenyl]ethyl]pyrrolidine-2-carboxamide] | > 100 nM | B (“B” indicates maximum degradation ≥50%) |  | < 50% |
| Cc1ncsc1-c1ccc([C@H](C)NC(=O)[C@@H]2C[C@@H](O)CN2C(=O)C(C(C)C)n2cc(N3C4CCC3CN(c3ccc5cc(-c6ccccc6O)nnc5c3)C4)nn2)cc1 (stereo partly drawn) [Compound 268, (2S,4R)-4-hydroxy-1-(2-(4-(3-(3-(2-hydroxyphenyl)cinnolin-7-yl)-3,8-diazabicyclo[3.2.1]octan-8-yl)-1H-1,2,3-triazol-1-yl)-3-methylbutanoyl)-N-((S)-1-(4-(4-methylthiazol-5-yl)phenyl)ethyl)pyrrolidine-2-carboxamide] | > 100 nM | A (“A” indicates maximum degradation ≥75%) |  | < 50% |
| Cc1ncsc1-c1ccc([C@H](C)NC(=O)[C@@H]2C[C@@H](O)CN2C(=O)C(C(C)C)n2cc(N3CCC(C4CN(c5ccc6nnc(-c7ccccc7O)cc6c5)C4)C3)nn2)cc1 (stereo partly drawn) [Compound 269, (2S,4R)-4-hydroxy-1-(2-(4-(3-(1-(3-(2-hydroxyphenyl)cinnolin-6-yl)azetidin-3-yl)pyrrolidin-1-yl)-1H-1,2,3-triazol-1-yl)-3-methylbutanoyl)-N-((S)-1-(4-(4-methylthiazol-5-yl)phenyl)ethyl)pyrrolidine-2-carboxamide] | < 10 nM | A (“A” indicates maximum degradation ≥75%) | > 10 nM | > 75% |
| Cc1ncsc1-c1ccc([C@H](C)NC(=O)[C@@H]2C[C@@H](O)CN2C(=O)C(C(C)C)n2cc(N3CCCC(CN4CCN(c5ccc6nnc(-c7ccccc7O)cc6c5)CC4)C3)nn2)cc1 (stereo partly drawn) [Compound 270, (2S,4R)-4-hydroxy-1-(2-(4-(3-((4-(3-(2-hydroxyphenyl)cinnolin-6-yl)piperazin-1-yl)methyl)piperidin-1-yl)-1H-1,2,3-triazol-1-yl)-3-methylbutanoyl)-N-((S)-1-(4-(4-methylthiazol-5-yl)phenyl)ethyl)pyrrolidine-2-carboxamide] | < 10 nM | A (“A” indicates maximum degradation ≥75%) | > 10 nM | > 75% |
| Cc1ncsc1-c1ccc([C@H](C)NC(=O)[C@@H]2C[C@@H](O)CN2C(=O)[C@H](C(C)C)n2cnc(N3CC4(CN(c5ccc6cc(-c7ccccc7O)nnc6c5)C4)C3)c2)cc1 [Compound 271, (2S,4R)-4-hydroxy-1-((S)-2-(4-(6-(3-(2-hydroxyphenyl)cinnolin-7-yl)-2,6-diazaspiro[3.3]heptan-2-yl)-1H-imidazol-1-yl)-3-methylbutanoyl)-N-((S)-1-(4-(4-methylthiazol-5-yl)phenyl)ethyl)pyrrolidine-2-carboxamide] | > 10 nM | A (“A” indicates maximum degradation ≥75%) |  | < 50% |
| Cc1ncsc1-c1ccc([C@H](C)NC(=O)[C@@H]2C[C@@H](O)CN2C(=O)[C@H](C(C)C)n2cnc(N3CC4(CN(c5ccc6nnc(-c7ccccc7O)cc6c5)C4)C3)c2)cc1 [Compound 272, (2S,4R)-4-hydroxy-1-((S)-2-(4-(6-(3-(2-hydroxyphenyl)cinnolin-6-yl)-2,6-diazaspiro[3.3]heptan-2-yl)-1H-imidazol-1-yl)-3-methylbutanoyl)-N-((S)-1-(4-(4-methylthiazol-5-yl)phenyl)ethyl)pyrrolidine-2-carboxamide] | > 100 nM | A (“A” indicates maximum degradation ≥75%) |  | < 50% |
| C#Cc1ccc([C@H](C)NC(=O)[C@@H]2C[C@@H](O)CN2C(=O)[C@@H](c2cc(N3CC4(CN(c5ccc6cc(-c7ccccc7O)nnc6c5)C4)C3)no2)C(C)C)c(OC)c1 [Compound 273, (2S,4R)-N-((S)-1-(4-ethynyl-2-methoxyphenyl)ethyl)-4-hydroxy-1-((R)-2-(3-(6-(3-(2-hydroxyphenyl)cinnolin-7-yl)-2,6-diazaspiro[3.3]heptan-2-yl)isoxazol-5-yl)-3-methylbutanoyl)pyrrolidine-2-carboxamide] | < 10 nM | A (“A” indicates maximum degradation ≥75%) |  | < 50% |
| C#Cc1ccc([C@H](C)NC(=O)[C@@H]2C[C@@H](O)CN2C(=O)[C@@H](c2cc(N3CC4(CN(c5ccc6cc(-c7ccccc7O)nnc6c5)C4)C3)no2)C(C)C)cc1 [Compound 274, (2S,4R)-N-((S)-1-(4-ethynylphenyl)ethyl)-4-hydroxy-1-((R)-2-(3-(6-(3-(2-hydroxyphenyl)cinnolin-7-yl)-2,6-diazaspiro[3.3]heptan-2-yl)isoxazol-5-yl)-3-methylbutanoyl)pyrrolidine-2-carboxamide] | < 10 nM | A (“A” indicates maximum degradation ≥75%) |  | < 50% |
| Cc1ncsc1-c1ccc([C@H](C)NC(=O)[C@@H]2C[C@@H](O)CN2C(=O)C(C(C)C)n2cc(N3CCCC4(CCN(c5ccc6nnc(-c7ccccc7O)cc6c5)CC4)C3)nn2)cc1 (stereo partly drawn) [Compound 275] | < 10 nM | A (“A” indicates maximum degradation ≥75%) | > 10 nM | > 75% |
| Cc1ncsc1-c1ccc([C@H](C)NC(=O)[C@@H]2C[C@@H](O)CN2C(=O)C(C(C)C)n2cc(N3CCC34CN(c3ccc5nnc(-c6ccccc6O)cc5c3)C4)nn2)cc1 (stereo partly drawn) [Compound 276] |  | C (“C” indicates maximum degradation <50%) | > 10 nM | > 75% |
| Cc1ncsc1-c1ccc([C@H](C)NC(=O)[C@@H]2C[C@@H](O)CN2C(=O)C(C(C)C)n2cc(N3CCC4(CCN4c4ccc5nnc(-c6ccccc6O)cc5c4)C3)nn2)cc1 (stereo partly drawn) [Compound 277] | < 10 nM | A (“A” indicates maximum degradation ≥75%) |  | < 50% |
| Cc1ncsc1-c1ccc([C@H](C)NC(=O)[C@@H]2C[C@@H](O)CN2C(=O)C(C(C)C)n2cc(N3CCC4(CC3)CCN4c3ccc4nnc(-c5ccccc5O)cc4c3)nn2)cc1 (stereo partly drawn) [Compound 278] | < 10 nM | A (“A” indicates maximum degradation ≥75%) | > 10 nM | > 50% |
| Cc1ncsc1-c1ccc([C@H](C)NC(=O)[C@@H]2C[C@@H](O)CN2C(=O)C(C(C)C)n2cc(N3CCC4(CCN(c5ccc6nnc(-c7ccccc7O)cc6c5)CC4)C3)nn2)cc1 (stereo partly drawn) [Compound 279] | < 10 nM | A (“A” indicates maximum degradation ≥75%) | > 10 nM | > 75% |
| Cc1ncsc1-c1ccc([C@H](C)NC(=O)[C@@H]2C[C@@H](O)CN2C(=O)C(C(C)C)n2cc(N3CCN(CC4CCCN(c5ccc6nnc(-c7ccccc7O)cc6c5)C4)CC3)nn2)cc1 (stereo partly drawn) [Compound 280] | < 10 nM | A (“A” indicates maximum degradation ≥75%) | < 10 nM | > 75% |
| Cc1ncsc1-c1ccc([C@H](C)NC(=O)[C@@H]2C[C@@H](O)CN2C(=O)C(C(C)C)n2cc(N3CCN(CC4CCN(c5ccc6nnc(-c7ccccc7O)cc6c5)CC4)CC3)nn2)cc1 (stereo partly drawn) [Compound 281] | < 10 nM | A (“A” indicates maximum degradation ≥75%) | < 10 nM | > 75% |
| Cc1ncsc1-c1ccc([C@H](C)NC(=O)[C@@H]2C[C@@H](O)CN2C(=O)C(C(C)C)n2cc(N3CCN(CN4CCN(c5ccc6nnc(-c7ccccc7O)cc6c5)CC4)CC3)nn2)cc1 (stereo partly drawn) [Compound 282] | < 10 nM | A (“A” indicates maximum degradation ≥75%) | < 10 nM | > 75% |
| CC(C)[C@@H](C(=O)N1C[C@H](O)C[C@H]1C(=O)N[C@@H](C)c1ccc(F)cc1)c1cc(N2CC3(CC(c4cc5nnc(-c6ccccc6O)cc5cc4C(F)F)C3)C2)no1 [Compound 283] | < 10 nM | A (“A” indicates maximum degradation ≥75%) |  | < 50% |
| C#Cc1ccc([C@H](C)NC(=O)[C@@H]2C[C@@H](O)CN2C(=O)[C@@H](c2cc(N3CC4(CN(c5ccc6cc(-c7ccccc7O)nnc6c5)C4)C3)no2)C(C)C)c(Cl)c1 [Compound 284] | < 10 nM | A (“A” indicates maximum degradation ≥75%) |  | < 50% |
